Data taken from patent US4250255A, “Assay method for isoenzyme activity” (Eastman Kodak Company, priority 1977, dated 1981).

Key:
LD1 and LD5 = assay: Screening of amphiphiles for ability to discriminate between LD1 and LD5; conditions: range of amphiphile concentrations; relative activity vs buffer
Procedure: A series of solutions was prepared covering a range of concentrations for each amphiphile to be tested. The activities of both LD1 and LD5 were determined in the presence of the various concentrations of each amphiphile and compared with enzyme activities in buffer (relative activity).
Enzyme activity in the presence and absence of amphiphile was measured by the following procedure: Stock solutions of NADH (4 mM) and pyruvate (40 mM) were prepared daily in 30 mM sodium phosphate buffer, pH 7.4. Enzyme solutions were prepared daily by withdrawing 5 μl of the stock enzyme solutions with a Hamilton syringe and diluting to 5 ml with 30 mM sodium phosphate buffer. (The resulting solution contains approximately 5 U of enzyme/ml.) The enzyme assay was run by pipetting 2.7 ml of buffer or buffer surfactant solution into a 10 mm path length quartz cuvette, and 100 μl each of NADH and pyruvate stock solutions were added. […] Enzyme solution was added with good mixing; the absorbance decrease at 340 nm was measured as a function of time. The rate of the reaction was determined by measuring the slope of the initial absorbance decrease, i.e., within the first 50 seconds of the reaction.

LD1 [1] = molecular target: LD1 (Sus scrofa, UniProt P00336); assay: Effect of cationic amphiphiles on the activity of LDH isoenzymes (Table 1); assay type: biochemical; conditions: 30 mM sodium phosphate buffer pH 7.4, 25° C.; read-out: Amphiphile conc. Req'd for 50% Inactivation of Specified Isoenzyme (LD1)
Sequence of LD1 (Sus scrofa, UniProt P00336) (P00336 whole entry): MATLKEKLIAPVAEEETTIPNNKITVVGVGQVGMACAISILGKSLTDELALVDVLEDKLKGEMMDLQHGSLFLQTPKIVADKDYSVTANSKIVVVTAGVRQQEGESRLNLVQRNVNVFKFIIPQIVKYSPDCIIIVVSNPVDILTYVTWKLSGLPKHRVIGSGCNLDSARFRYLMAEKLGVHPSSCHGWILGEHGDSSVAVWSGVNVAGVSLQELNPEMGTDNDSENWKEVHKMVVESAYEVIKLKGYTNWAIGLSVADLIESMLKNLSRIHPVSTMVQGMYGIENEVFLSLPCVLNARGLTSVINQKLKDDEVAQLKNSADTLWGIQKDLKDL
Procedure: (§1) The assay for LDH activity in both the absence and presence of surfactant was conducted as follows. […] The resulting solution contains approximately 5 units/ml. […] To the equilibrated solution […]. of the enzyme solution was added, and the cuvette was rapidly shaken while covering the top of the cuvette with a small piece of Parafilm® and placed back into the spectrophotometer.
(§2) Amphiphile solutions were prepared by weighing out a given amount of amphiphile, e.g., 100 mg, and preparing a stock solution in 30 mM sodium phosphate buffer in 100 ml. volumetric flask. Solutions of lower amphiphile concentration were prepared by making the appropriate dilutions from the stock solution.
A number of cationic amphiphiles were investigated for specific inactivation of LD1 in the presence of LD5 and these compounds are listed in Table 1.

[2] = molecular target: T1, LDH isoenzymes (LD5 in the presence of LD1) (Oryctolagus cuniculus, UniProt P13491); assay: Anionic amphiphiles tested for specific interaction with LDH isoenzymes (Table 2); assay type: biochemical
T1 construct: LD1 (LDHB tetramer) only as comparison
Procedure: as §1, §2
A number of anionic amphiphiles were investigated for specific inactivation of LD5 in the presence of LD1 and these compounds are listed in Table 2.

LD1 [3] = assay: LDH activity assay with amphiphile, LDH isoenzymes; assay type: biochemical, porcine; conditions: FIG. 12
Procedure: 3. Beef heart LDH (Sigma Chemical Co., Type III), rabbit muscle LDH (Sigma Chemical Co., Type V) and porcine LDH, LD1, LD2, LD3, LD4 and LD5 in the form of ammonium sulfate suspensions were used for these examples.
as §1, §2

Row | Compound | Effectiveness (LDH isoenzyme inhibition specificity, LD1 vs LD5) (LD1 and LD5) | further results
1 | CCCCCCCCCCCC(=O)[O-].[Na+] [Sodium dodecanoate] | 0 | 
2 | CCCCCCCCOS(=O)(=O)[O-].[Na+] [Sodium octyl sulfate] | + | 
3 | CCCCCCCCCCCCCCCCCC(=O)[O-].[Na+] [Sodium stearate] | 0 | 
4 | CCCCCCCCCCCCCCOS(=O)(=O)[O-].[Na+] [Sodium tetradecylsulfate] | ++ | 
5 | CCCCCCCC[N+](CCC)(CCCCCCCC)CCCCCCCC.[Br-] [Trioctylpropylammonium bromide] | 0 | IC50 (LD1 [1]): 1.6 mM
6 | C[C@H](CCC(=O)O)[C@H]1CC[C@H]2[C@@H]3C(=O)C[C@@H]4CC(=O)CC[C@]4(C)[C@H]3CC(=O)[C@]12C [dehydrocholic acid] |  | Interaction (specific inactivation of LD5 in the presence of LD1) [2]: no effect
7 | CCCCCCCCCCCC(=O)O [lauric acid] |  | Interaction (specific inactivation of LD5 in the presence of LD1) [2]: no effect
8 | CCCCCCCCCCCCCCCCCC(=O)[O-].[Li+] [lithium stearate] |  | Interaction (specific inactivation of LD5 in the presence of LD1) [2]: no effect
9 | Heparin | + | inactivation of LD1 compared with LD5 (LD1 [3]): LD1 is more inactivated than LD5
10 | Sodium isopropylnaphthalene sulfonate | + | 
11 | Sodium n-decyldiphenylether disulfonate | ++ | 
12 | octylphenolpoly(1-oxapropene)oxaethane carboxylic acid sodium salt | 0 | 
